Results reported in paper PMC10415461 (Molecular Diversity, 2022).
Values after ≈ are worked out from the molar mass of the structure shown. Read-outs that look alike come from different tables or passages of the source.

Key:
[1] = tested on: S. aureus (ATCC 6538); assay: Antibacterial MIC, standard agar cup diffusion method; assay type: cell-based, Staphylococcus aureus; details: Staphylococcus aureus, ATCC6538, 37 °C, 24 h, read-out: MIC S. aureus (Gram-positive)
Experimental: (§1) The antibacterial and antifungal activities of compounds, ketone 1, 2a-j, and 5a-i were evaluated in vitro against S. aureus (ATCC 6538), P. aeruginosa (ATCC 10,145), E. coli (ATCC 8739), and C. albicans (ATCC 10,231). […] Standard strains of Staphylococcus aureus (ATCC 6538), Pseudomonas aeruginosa (ATCC 10,145), and Escherichia coli (ATCC 8739) were obtained from microbiological resource center, Faculty of Agriculture, Ain Shams University, Cairo, Egypt. All isolates were maintained at -70 °C in Trypticase Soya Broth (TSB, Becton, and Dickinson) with 10% glycerol. Prior to inoculation, all isolates were subcultured at 37 °C for 24 h on Trypticase Soya Agar (TSA, Becton, and Dickinson) and TSB, respectively.
(§2) The plates were rotated slowly to ensure uniform distribution of the microorganisms and then allowed to solidify on a flat surface. After solidification, four equidistant and circular wells of 10 mm diameter were carefully punched using a sterile cork bore. Twofold serial dilutions of the tested compounds using DMSO were performed. An equal volume of 100µL of each dilution was applied separately to each well in three replicates using a micropipette. All plates were incubated at 37 °C for 24 h. The inhibition zones were measured, and their average was calculated.

[2] = tested on: tested bacterial strains (Gram positive or Gram negative: S. aureus, P. aeruginosa, E. coli); assay: Antibacterial MIC range over the tested bacterial strains; assay type: cell-based; details: range over Gram positive and Gram negative strains
Experimental: . Standard strains of Staphylococcus aureus (ATCC 6538), Pseudomonas aeruginosa (ATCC 10,145), and Escherichia coli (ATCC 8739) were obtained from microbiological resource center, Faculty of Agriculture, Ain Shams University, Cairo, Egypt. All isolates were maintained at -70 °C in Trypticase Soya Broth (TSB, Becton, and Dickinson) with 10% glycerol. Prior to inoculation, all isolates were subcultured at 37 °C for 24 h on Trypticase Soya Agar (TSA, Becton, and Dickinson) and TSB, respectively.
as §2, with “calculated. The MIC was calculated by plotting the natural logarithm of the concentration of each dilution of the tested compounds against the square of zones of inhibition, and a regression line was drawn through the points then the antilogarithm of the intercept on the logarithm of concentration axis gave the MIC value.” for “calculated.”

[3] = tested on: E. coli (ATCC 8739); assay: Antibacterial MIC, standard agar cup diffusion method; assay type: cell-based; details: Escherichia coli, ATCC8739, 37 °C, 24 h, read-out: MIC E. coli (Gram-negative)
Experimental: as §1, §2

[4] = tested on: P. aeruginosa (ATCC 10,145); assay: as above; assay type: cell-based; details: Pseudomonas aeruginosa, ATCC 10145, 37 °C, 24 h, read-out: MIC P. aeruginosa (Gram-negative)
Experimental: as §1, §2

[5] = Solubility determination in phosphate buffer; assay type: physicochemical; details: aqueous buffer, thermodynamic from solid
Experimental: A sample of drug was accurately weighed and dissolved in 100 ml of distilled water to prepare 100 mcg/ml stock solutions. Appropriate dilution of the stock solution with phosphate buffer pH 6.8 and 7.8 was then made to prepare a working solution of 40mcg/ml.
After determination of λ max of drug, a calibration curve was constructed by preparing solutions containing different concentrations of (1–5 mcg/ml) from stock solution after appropriate dilution with phosphate buffer pH 6.8. The UV absorbance of the prepared sample solutions were measured at the predetermined λ max using phosphate buffer pH 6.8 as a blank.
Aqueous solubility of the complexes was measured as a function of pH. An excess of each derivative was placed into suitable stoppered containers. […] The samples were immersed in a water bath thermostatized at 37 ± 1^◦C and 100 rpm and periodically shaken for 48 h. Once the equilibrium was reached, the pH of the supernatant was regarded.

[6] = physchem; details: pH 7.8
Experimental: The n-octanol/water apparent partition coefficient at the isoelectric point (or distribution constant) was measured by using the traditional shake-flask technique. The pH of the aqueous buffer was first adjusted to isoelectric point of the compound. The n-octanol and aqueous phases were then mutually saturated before the measurement. […] The samples were agitated for 5h at water bath shaker thermostatized at 25 ± 1^◦C and 100 rpm. The concentration of the solute was determined in the aqueous and organic phases at the isoelectric point by UV spectroscopy the log p value was calculated as follows: […].

[7] = biological target: S. aureus DNA gyrase (Staphylococcus aureus, UniProt P0A0K8+P20831); assay: Staphylococcus aureus DNA gyrase supercoiling assay; assay type: biochemical; details: supercoiling of relaxed pBR322, 37 °C, 30 min; read-out: S. aureus DNA gyrase IC50 ± SD
Experimental: As antibacterial agents, fluoroquinolones act by targeting and inhibiting DNA gyrase (topo II) which is an essential enzyme involved in the DNA replication process.
Staphylococcus aureus DNA gyrase was incubated at 37 °C for 30 min in a total reaction volume of 30 μl containing 40 mM HEPES. KOH (pH 7.6), 10 mM magnesium acetate, 10 mM DTT, 2 mM ATP, 500 mM potassium glutamate, 0.05 mg/ml albumin and Relaxed pBR322. DNA gyrase supercoiling reactions catalyzed by S. aureus gyrase, Stop reaction by adding 30 μL of STEB and 30 μL of chloroform/isoamyl alcohol (v:v, 24:1),and then Vortex briefly ~ 5 secs and centrifuge for 1 min. after which 20 µL of this was loaded on a 1% agarose gel that was then run at ~ 75 V for approximately 2 h. The gel was stained by (0.5 mg/L) ethidium bromide in water. Fluorescent images were taken at a wavelength of 300 nm on a UV transilluminator imaging system. The fluorescence intensity of the supercoiled plasmid reaction product was quantitated using ImagQuant software (Molecular Dynamics).

[8] = tested on: C. albicans (ATCC 10,231); assay: Antifungal MIC, agar cup diffusion method; assay type: cell-based, Candida albicans; details: Sabouraud agar, 37 °C; for MIC: Candida albicans, ATCC 10,231, 24 h, read-out: MIC C. albicans (Fungi)
Experimental: The antibacterial and antifungal activities of compounds, ketone 1, 2a-j, and 5a-i were evaluated in vitro against S. aureus (ATCC 6538), P. aeruginosa (ATCC 10,145), E. coli (ATCC 8739), and C. albicans (ATCC 10,231). […] The antifungal activity of compounds 1, 2a-j, and 5a-i and ketoconazole were determined according to the agar cup diffusion method at Deraya University, Faculty of Pharmacy, Department of Microbiology.
Fungal strains and culture conditions. […] Standard strain of Candida albicans (ATCC 10,231) was obtained from microbiological resource center, Faculty of Agriculture, Ain Shams University, Cairo, Egypt. The isolate was maintained at -70 °C in Trypticase Soya Broth (TSB, Becton, and Dickinson) with 10% glycerol. Prior to inoculation, the isolate was subcultured at 37 °C for 24 h on Trypticase Soya Agar (TSA, Becton, and Dickinson) and TSB, respectively.
as §2

[9] = tested on: all tested strains, either Gram-positive or Gram-negative pathogens; parameters: method as in doi:10.1016/j.cclet.2016.12.012, doi:10.1515/hc-2016-0125; details: reference drug; cited from earlier work
[10] = tested on: fluoroquinolones, vancomycin, and/or linezolid-resistant strains; details: cited from earlier work
[11] = tested on: Gram negative and Gram positive; parameters: method as in PMID 14623004; details: cited from earlier work
[12] = tested on: Gram-positive pathogens; parameters: method as in doi:10.1016/j.cclet.2016.12.012, doi:10.1515/hc-2016-0125; details: cited from earlier work
[13] = tested on: Gram-negative pathogens; parameters: method as in doi:10.1016/j.cclet.2016.12.012, doi:10.1515/hc-2016-0125; details: cited from earlier work
[14] = phosphate buffer pH 6.8, 37 °C, read-out: Solubility pH 6.8
[15] = phosphate buffer pH 7.8, 37 °C, read-out: Solubility pH 7.8

Chain of S. aureus DNA gyrase (P20831 whole entry): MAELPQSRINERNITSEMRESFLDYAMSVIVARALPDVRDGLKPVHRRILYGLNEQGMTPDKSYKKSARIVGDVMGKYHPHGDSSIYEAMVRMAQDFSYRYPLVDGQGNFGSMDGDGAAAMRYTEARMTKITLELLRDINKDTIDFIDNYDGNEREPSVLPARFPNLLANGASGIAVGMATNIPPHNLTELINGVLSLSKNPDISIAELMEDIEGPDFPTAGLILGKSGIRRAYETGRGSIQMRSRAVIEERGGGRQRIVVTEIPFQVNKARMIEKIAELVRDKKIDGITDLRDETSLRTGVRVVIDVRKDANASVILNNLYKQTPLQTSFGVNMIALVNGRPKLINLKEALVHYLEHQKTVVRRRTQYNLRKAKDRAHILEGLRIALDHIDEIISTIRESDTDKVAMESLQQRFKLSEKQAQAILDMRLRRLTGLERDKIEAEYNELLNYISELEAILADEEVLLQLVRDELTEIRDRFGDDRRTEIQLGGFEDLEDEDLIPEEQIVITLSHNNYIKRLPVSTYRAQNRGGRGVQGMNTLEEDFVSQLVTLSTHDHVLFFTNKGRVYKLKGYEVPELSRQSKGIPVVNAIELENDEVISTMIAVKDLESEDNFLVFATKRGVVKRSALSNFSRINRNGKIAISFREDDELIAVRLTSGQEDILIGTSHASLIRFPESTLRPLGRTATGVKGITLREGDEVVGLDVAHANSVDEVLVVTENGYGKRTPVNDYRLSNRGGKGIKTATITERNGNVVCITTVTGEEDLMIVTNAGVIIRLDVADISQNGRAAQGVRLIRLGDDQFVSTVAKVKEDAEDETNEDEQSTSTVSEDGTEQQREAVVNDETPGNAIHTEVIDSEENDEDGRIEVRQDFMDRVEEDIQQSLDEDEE
Chain of S. aureus DNA gyrase (P0A0K8 whole entry): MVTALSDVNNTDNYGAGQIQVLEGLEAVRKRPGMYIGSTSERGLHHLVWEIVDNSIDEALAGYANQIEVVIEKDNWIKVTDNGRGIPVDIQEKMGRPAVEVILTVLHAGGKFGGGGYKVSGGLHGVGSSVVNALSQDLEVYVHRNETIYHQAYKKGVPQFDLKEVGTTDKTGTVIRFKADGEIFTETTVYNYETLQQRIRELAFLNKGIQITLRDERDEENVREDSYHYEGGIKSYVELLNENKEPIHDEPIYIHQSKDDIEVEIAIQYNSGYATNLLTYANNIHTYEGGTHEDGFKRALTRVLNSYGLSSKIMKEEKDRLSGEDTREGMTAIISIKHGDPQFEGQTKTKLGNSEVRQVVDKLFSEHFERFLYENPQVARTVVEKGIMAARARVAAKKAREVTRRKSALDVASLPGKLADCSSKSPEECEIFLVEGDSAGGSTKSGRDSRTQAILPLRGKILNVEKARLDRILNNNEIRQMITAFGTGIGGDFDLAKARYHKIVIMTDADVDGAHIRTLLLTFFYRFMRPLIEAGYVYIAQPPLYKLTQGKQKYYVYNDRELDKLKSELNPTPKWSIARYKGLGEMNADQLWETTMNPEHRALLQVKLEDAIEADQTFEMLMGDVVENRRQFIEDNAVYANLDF

Row | SMILES | MIC [1] | MIC range against the tested bacterial strains [2] | MIC [3] | MIC [4] | solubility at 48 h [5, 14] | solubility at 48 h [5, 15] | logD [6] | IC50 [7] | MIC [8] | MIC C. albicans (Fungi) ([8]; 24 h) | melting point | MIC [9] | MIC range [10] | MIC range [11] | MIC [12] | MIC [13]
1 | O=C(O)c1cn(C2CC2)c2cc(N3CCNCC3)c(F)cc2c1=O [Ciprofloxacin, reference compound] | 3.25 µg/mL (≈ 9.81 µM) | 0.15 to 3.25 µg/mL | 0.15 µg/mL (≈ 0.453 µM) | 0.22 µg/mL (≈ 0.664 µM) | – | – | – | – | – | – | – | – | – | – | – | –
2 | O=C(/C=C/c1cccc(Cl)c1)c1ccc(NC(=O)N2CCN(c3cc4c(cc3F)c(=O)c(C(=O)O)cn4C3CC3)CC2)cc1 [Compound 2b] | 0.06 µg/mL (≈ 0.0976 µM) | 0.06 to 1.53 µg/mL | 0.18 µg/mL (≈ 0.293 µM) | 0.64 µg/mL (≈ 1.04 µM) | 160 µg/mL (≈ 260 µM) | 180 µg/mL (≈ 293 µM) | 0.31 | 231 ± 10 nM | 15.2 µg/mL (≈ 24.8 µM) | – | – | – | – | – | – | –
3 | O=C(/C=C/c1ccc(Cl)cc1)c1ccc(NC(=O)N2CCN(c3cc4c(cc3F)c(=O)c(C(=O)O)cn4C3CC3)CC2)cc1 [Compound 2c] | 0.67 µg/mL (≈ 1.09 µM) | 0.06 to 1.53 µg/mL | 0.34 µg/mL (≈ 0.553 µM) | 1.03 µg/mL (≈ 1.67 µM) | 130 µg/mL (≈ 211 µM) | 150 µg/mL (≈ 244 µM) | 0.07 | 3000 ± 160 nM | 2.03 to 3.89 µg/mL (≈ 3.3 to 6.32 µM) | 3.89 µg/mL (≈ 6.32 µM) | – | – | – | – | – | –
4 | N#Cc1c(-c2ccccc2)nc(SCC(=O)N2CCN(c3cc4c(cc3F)c(=O)c(C(=O)O)cn4C3CC3)CC2)[nH]c1=O [Compound 5a, 7-(4-(2-((5-Cyano-6-oxo-4-phenyl-1,6-dihydropyrimidin-2-yl)thio)acetyl)piperazin-1-yl)-1-cyclopropyl-6-fluoro-4-oxo-1,4-dihydroquinoline-3-carboxylic acid] | 0.36 µg/mL (≈ 0.599 µM) | 0.06 to 1.53 µg/mL | 0.91 µg/mL (≈ 1.52 µM) | 1.53 µg/mL (≈ 2.55 µM) | – | – | – | 4550 ± 240 nM | 6.23 µg/mL (≈ 10.4 µM) | – | 237 to 240 °C | – | – | – | – | –
5 | N#Cc1c(-c2cccc(Cl)c2)nc(SCC(=O)N2CCN(c3cc4c(cc3F)c(=O)c(C(=O)O)cn4C3CC3)CC2)[nH]c1=O [Compound 5b, 7-(4-(2-((4-(3-Chlorophenyl)-5-cyano-6-oxo-1,6-dihydropyrimidin-2-yl)thio)acetyl)piperazin-1-yl)-1-cyclopropyl-6-fluoro-4-oxo-1,4-dihydroquinoline-3-carboxylic acid] | 0.7 µg/mL (≈ 1.1 µM) | 0.06 to 1.53 µg/mL | 0.12 µg/mL (≈ 0.189 µM) | 0.19 µg/mL (≈ 0.299 µM) | – | – | – | 1270 ± 70 nM | > 100 µg/mL | – | 248 to 251 °C | – | – | – | – | –
6 | COc1ccc(-c2nc(SCC(=O)N3CCN(c4cc5c(cc4F)c(=O)c(C(=O)O)cn5C4CC4)CC3)[nH]c(=O)c2C#N)cc1OC [Compound 5h, 7-(4-(2-((5-Cyano-4-(3,4-dimethoxyphenyl)-6-oxo-1,6-dihydropyrimidin-2-yl)thio)acetyl)piperazin-1-yl)-1-cyclopropyl-6-fluoro-4-oxo-1,4-dihydroquinoline-3-carboxylic acid] | 0.34 µg/mL (≈ 0.515 µM) | 0.06 to 1.53 µg/mL | 0.21 µg/mL (≈ 0.318 µM) | 0.49 µg/mL (≈ 0.742 µM) | – | – | – | 1460 ± 80 nM | 28.7 µg/mL (≈ 43.5 µM) | – | 266 to 269 °C | – | – | – | – | –
7 | COc1cc(-c2nc(SCC(=O)N3CCN(c4cc5c(cc4F)c(=O)c(C(=O)O)cn5C4CC4)CC3)[nH]c(=O)c2C#N)cc(OC)c1OC [Compound 5i, 7-(4-(2-((5-Cyano-6-oxo-4-(3,4,5-trimethoxyphenyl)-1,6-dihydropyrimidin-2-yl)thio)acetyl)piperazin-1-yl)-1-cyclopropyl-6-fluoro-4-oxo-1,4-dihydroquinoline-3-carboxylic acid] | 0.74 µg/mL (≈ 1.07 µM) | 0.06 to 1.53 µg/mL | 0.63 µg/mL (≈ 0.912 µM) | 0.13 µg/mL (≈ 0.188 µM) | – | – | – | 1410 ± 70 nM | > 100 µg/mL | – | 284 to 285 °C | – | – | – | – | –
8 | CC1(C)S[C@@H]2[C@H](NC(=O)[C@H](N)c3ccccc3)C(=O)N2[C@H]1C(=O)O [ampicillin] | – | – | – | – | – | – | – | – | – | – | – | 3.9 to 250 µg/mL | – | – | – | –
9 | CC(=O)NC[C@H]1CN(c2ccc(N3CCN(c4cc5c(cc4F)c(=O)c(C(=O)O)cn5C4CC4)CC3)c(F)c2)C(=O)O1 [hybrid II] | – | – | – | – | – | – | – | – | – | – | – | – | 0.25 to 0.5 µg/mL | 0.125 to 4 µg/mL | – | –
10 | COc1cccc(-c2nn(CN3CCN(c4cc5c(cc4F)c(=O)c(C(=O)O)cn5C4CC4)CC3)c(=S)n2Cc2ccc(Br)cc2Cl)c1 [hybrid I] | – | – | – | – | – | – | – | – | – | – | – | – | – | – | < 0.24 µg/mL | 0.01 to 1.32 µg/mL
